Patent US9714249B2 (Novartis AG, priority 2013, dated 2017)

What was measured:
BRD2 (His-Brd2(60-472)) = BRD2 (His-Brd2(60-472)) (Homo sapiens (Human), UniProt P25440); assay: TR-FRET in-vitro binding assay for BRD2; conditions: acetyl-histone H4 peptide
Description: (§1) All assays were performed in 384 well microtiter plates. Each assay plate contained 8-point serial dilutions for 40 test compounds, plus 16 high- and 16 low controls. Liquid handling and incubation steps were done on an Innovadyne Nanodrop Express equipped with a robotic arm (Thermo CatX, Perkin Elmer/Caliper Twister II) and an incubator (Liconic STX40, Thermo Cytomat 2C450). The assay plates were prepared by addition of 50 nl per well of compound solution in 90% DMSO HummingBird nanodispenser (Zinsser Analytic). The assay was started by stepwise addition of 4.5 μl per well of bromo domain protein (50 mM HEPES, pH 7.5, 0.005% Tween20, 0.1% BSA, 50 mM NaCl, 45 nM His-Brd2(60-472) or 45 nM His-Brd3(20-477) or 45 nM His-Brd4(44-477) all proteins produced in-house) and 4.5 μl per well of peptide solution (50 mM HEPES, pH 7.5, 0.005% Tween20, 0.1% BSA, 50 mM NaCl, 60 nM acetyl-histone H4 (AcK 5, 8, 12, 16) (Biosyntan GmbH)). Reactions were incubated at 30° C. for 35 minutes. Subsequently 4.5 μl per well detection mix (50 mM HEPES, pH 7.5, 0.005% Tween20, 0.1% BSA, 50 mM NaCl, 3 nM Eu-labeled anti-His6 antibody, 21 nM streptavidin-allophycocyanin) were added. After 35 minutes incubation at 30° C., plates were measured in a Perkin Elmer EnVision multilabel reader. Concentrations causing 50% inhibition (1050) values were determined from percent inhibition values at different compound concentrations by non-linear regression analysis.
(§2) Test compounds were dissolved in DMSO (10 mM) and transferred into 1.4 mL flat bottom or V-shaped Matrix tubes carrying a unique 2D matrix. The stock solutions were stored at […] if not used immediately. For the test procedure the vials were defrosted and identified by a scanner whereby a working sheet was generated that guided the subsequent working steps. Compound dilutions were made in 96 well plates. This format enabled the assay of maximally 40 individual test compounds at 8 concentrations (single points) including 4 reference compounds, if desired (known BET inhibitors from the prior art, for this and other assays of the type disclosed herein). The dilution protocol included the production of “pre-dilution plates”, “master plates” and “assay plates”.
(§3) Pre-dilution plates: 96 polypropylene well plates were used as pre-dilution plates. A total of 4 pre-dilution plates were prepared including 10 test compounds each on the plate positions A1-A10, one standard compound at A11 and one DMSO control at A12. All dilution steps were done on a HamiltonSTAR robot. Master plates: 30 μL of individual compound dilutions including standard compound and controls of the 4 “pre-dilution plates” were transferred into a 384 “master plate” including the following concentrations 10000, 3003, 1000, 300, 100, 30, 10 and 3 μM, respectively in 90% of DMSO. Assay plates: Identical “assay plates” were then prepared by pipetting 50 nL each of compound dilutions of the “master plates” into 384-well “assay plates” by means of a HummingBird 384-channel dispenser. These plates were used directly for the assay which was performed in a total volume of 13.55 μL. This led to a final compound concentration of 37, 11, 3.7, 1.1, 0.37, 0.11, 0.037 and 0.011 μM and a final DMSO concentration of 0.37% in the assay. Cell Growth Inhibition Assay

BRD3 (His-Brd3(20-477)) = BRD3 (His-Brd3(20-477)) (Homo sapiens (Human), UniProt Q15059); assay: TR-FRET in-vitro binding assay for BRD3; conditions: acetyl-histone H4 peptide
BRD3 (His-Brd3(20-477)), sequence (Q15059 20-477, species assumed): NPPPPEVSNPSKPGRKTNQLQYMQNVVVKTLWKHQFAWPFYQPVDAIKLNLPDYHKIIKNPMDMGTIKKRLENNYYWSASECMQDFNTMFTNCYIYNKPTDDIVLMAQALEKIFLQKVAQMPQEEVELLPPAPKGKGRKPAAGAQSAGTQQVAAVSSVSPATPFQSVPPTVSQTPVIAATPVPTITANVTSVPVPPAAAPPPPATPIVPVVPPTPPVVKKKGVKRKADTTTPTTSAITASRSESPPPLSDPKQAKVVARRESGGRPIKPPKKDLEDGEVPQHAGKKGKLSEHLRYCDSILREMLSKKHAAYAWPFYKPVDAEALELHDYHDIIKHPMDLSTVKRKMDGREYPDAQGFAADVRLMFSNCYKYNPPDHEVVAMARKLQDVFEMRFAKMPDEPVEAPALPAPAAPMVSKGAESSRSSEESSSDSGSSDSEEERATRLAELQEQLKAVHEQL
Description: as §1, §2, §3

MV-4-11 cells = assay: Cell growth inhibition assay (CellTiter-Glo), MV-4-11; assay type: cell-based, human; conditions: MV-4-11, 4 days; for GI50: Homo sapiens, MV4-11, 96 h, half-maximal growth inhibition; for MV-4-11 TGI: total growth inhibition
Description: (§4) The human leukemia cell lines MV-4-11, THP-1 and K-562 were employed to characterize the effect of BET inhibitors on cellular proliferation and viability. Cells were obtained from the American Type Culture Collection (ATCC) and cultured at 37° C. in a humidified 5% CO2 incubator in the following media: MV-4-11: DMEM high glucose (Animed #1-26F01-I), 10% FCS (Animed #2-01F26-I), 4 mM L-Glutamine (Animed #5-10K50), 1 mM Sodium Pyruvate (Animed # G03625P), 1× Penicillin-Streptomycin (Animed # F12478P); K-562: Iscove's MEM (Animed #1-28F16-I), 10% FCS (Animed #2-01F26-I), 4 mM L-Glutamine (Animed #5-10K50), 1× Penicillin-Streptomycin (Animed # F12478P); THP-1: RPMI-1640 (Animed #1-41F01-I), 10% FCS (Animed #2-01F26-I), 2 mM L-Glutamine (Animed #5-10K50), 10 mM HEPES (Animed #5-31F100), 1 mM Sodium Pyruvate (Animed # G03625P), 1× Penicillin-Streptomycin (Animed # F12478P). The AML lines MV-4-11 and THP-1 are very sensitive to BET inhibitors and show massive cell death upon BET inhibition (Zuber et al., Nature, 478 (2011), 524-8). Compound-mediated suppression of cell proliferation/viability was assessed by quantification of cellular ATP levels using the CellTiter-Glo (CTG) reagent (Promega). Briefly, cells were seeded in 20 μl fresh medium into 384-well plates, followed by addition of 5 μl medium containing compound dilutions at 5-fold their final intended concentration. Dose-response effects were assessed by 3-fold serial dilutions of the test compound, starting at 10 μM. Following incubation of the cells for 4 days at 37° C. and 5% CO2, the effect of inhibitors on cell viability was quantified following addition of 20 μl CTG and luminescence quantification (integration time: 100 ms) as per vendor manual, using a correspondingly equipped Tecan M200 multi-mode platereader (TECAN, Switzerland). For data analysis, the assay background value determined in wells containing medium, but no cells, was subtracted from all data points. To enable differentiation of cytotoxic from cytostatic compounds, the number of viable cells is assessed relative to that observed at the time of compound addition using a separate cell plate (day 0). The effect of a particular test compound concentration on cell proliferation/viability is expressed as percentage of the background- and day 0-corrected luminescence reading obtained for cells treated with vehicle only (DMSO, 0.1% final concentration), which is set as 100%, whereas that luminescence reading for wells containing medium is set as −100%. Compound concentrations leading to half-maximal (1050) and total growth inhibition (TGI) were determined using standard four parameter curve fitting.

K-562 cells = assay: Cell growth inhibition assay (CellTiter-Glo), K-562; assay type: cell-based, human; conditions: K-562, 4 days; for GI50: Homo sapiens, K562, 96 h, half-maximal growth inhibition; for K-562 TGI: total growth inhibition
Description: as §4

BRD2 (His-Brd2(60-472)), sequence (P25440 60-472, species assumed): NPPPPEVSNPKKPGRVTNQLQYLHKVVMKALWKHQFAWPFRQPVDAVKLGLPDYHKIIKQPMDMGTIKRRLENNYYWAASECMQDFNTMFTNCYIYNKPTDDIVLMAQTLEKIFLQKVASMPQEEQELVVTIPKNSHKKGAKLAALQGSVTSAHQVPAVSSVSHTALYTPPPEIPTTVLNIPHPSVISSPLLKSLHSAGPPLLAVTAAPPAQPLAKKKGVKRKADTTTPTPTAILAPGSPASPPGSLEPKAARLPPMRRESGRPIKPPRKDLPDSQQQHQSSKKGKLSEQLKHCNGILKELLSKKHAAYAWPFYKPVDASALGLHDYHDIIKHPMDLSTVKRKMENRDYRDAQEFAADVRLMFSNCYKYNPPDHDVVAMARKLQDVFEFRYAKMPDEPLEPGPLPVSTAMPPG

Row | SMILES | IC50 (BRD2 (His-Brd2(60-472))) [nM] | IC50 (BRD3 (His-Brd3(20-477))) [nM] | GI50 (MV-4-11 cells) [nM] | MV-4-11 TGI (MV-4-11 cells) [µM] | GI50 (K-562 cells) [nM] | K-562 TGI (K-562 cells) [µM]
1 | COc1ncccc1-n1nc2c(c1C)C(=O)N(c1cc(Cl)c(=O)n(C)c1)C2c1ccc(Cl)cc1 (stereo not drawn) [Example 7b, 5-(5-chloro-1-methyl-6-oxo-1,6-dihydropyridin-3-yl)-6-(4-chlorophenyl)-2-(2-methoxypyridin-3-yl)-3-methyl-5,6-dihydropyrrolo[3,4-c]pyrazol-4(2H)-one] | 32 | 24 | 56.7 | 0.0824 | 548 | >10
2 | Cc1cc(N2C(=O)c3c(C4CC4)nn(CCO)c3C2c2ccc(Cl)cc2)cn(C)c1=O (stereo not drawn) [Example 3, 6-(4-chlorophenyl)-3-cyclopropyl-5-(1,5-dimethyl-6-oxo-1,6-dihydropyridin-3-yl)-1-(2-hydroxyethyl)-5,6-dihydropyrrolo[3,4-c]pyrazol-4(1H)-one] | 42 | 34 | 37.5 | 0.064 | 268 | >10
3 | COc1ncc(-n2nc(C)c3c2C(c2ccc(Cl)cc2)N(c2cc(Cl)c(=O)n(C)c2)C3=O)cn1 (stereo not drawn) [Example 8a, 5-(5-chloro-1-methyl-6-oxo-1,6-dihydropyridin-3-yl)-6-(4-chlorophenyl)-1-(2-methoxypyrimidin-5-yl)-3-methyl-5,6-dihydropyrrolo[3,4-c]pyrazol-4(1H)-one] | 120 | 120 | 141 | 0.294 | 991 | >10
4 | COCCn1nc(C2CC2)c2c1C(c1ccc(Cl)cc1)N(c1cc(C)c(=O)n(C)c1)C2=O (stereo not drawn) [Example 4, 6-(4-chlorophenyl)-3-cyclopropyl-5-(1,5-dimethyl-6-oxo-1,6-dihydropyridin-3-yl)-1-(2-methoxyethyl)-5,6-dihydropyrrolo[3,4-c]pyrazol-4(1H)-one] | 15 | 13 | 20.5 | 0.0336 | 109 | >10
5 | COc1ncc(-n2nc3c(c2C)C(=O)N(c2cc(C)c(=O)n(C)c2)C3c2ccc(Cl)cc2)cn1 (stereo not drawn) [Example 21b, 6-(4-chlorophenyl)-5-(1,5-dimethyl-6-oxo-1,6-dihydropyridin-3-yl)-2-(2-methoxypyrimidin-5-yl)-3-methyl-5,6-dihydropyrrolo[3,4-c]pyrazol-4(2H)-one] | 100 | 94 | 105 | 0.208 | 510 | >10
6 | COc1ncc(-n2nc(C)c3c2C(c2ccc(Cl)cc2)N(c2cc(C)c(=O)n(C)c2)C3=O)cn1 (stereo not drawn) [Example 21a, 6-(4-chlorophenyl)-5-(1,5-dimethyl-6-oxo-1,6-dihydropyridin-3-yl)-1-(2-methoxypyrimidin-5-yl)-3-methyl-5,6-dihydropyrrolo[3,4-c]pyrazol-4(1H)-one] | 63 | 52 | 115 | 0.177 | 404 | >10
7 | COc1ccc(-n2nc(C)c3c2C(c2ccc(Cl)cc2)N(c2cc(C)c(=O)n(C)c2)C3=O)cn1 (stereo not drawn) [Example 20b, 6-(4-chlorophenyl)-5-(1,5-dimethyl-6-oxo-1,6-dihydropyridin-3-yl)-1-(6-methoxypyridin-3-yl)-3-methyl-5,6-dihydropyrrolo[3,4-c]pyrazol-4(1H)-one] | 49 | 48 | 38.6 | 0.0542 | 239 | >10
8 | Cc1nn(C2CC2)c2c1C(=O)N(c1cc(C)c(=O)n(C)c1)C2c1ccc(Cl)cc1 (stereo not drawn) [Example 11, 6-(4-chlorophenyl)-1-cyclopropyl-5-(1,5-dimethyl-6-oxo-1,6-dihydropyridin-3-yl)-3-methyl-5,6-dihydropyrrolo[3,4-c]pyrazol-4(1H)-one] | 38 | 34 | 18.6 | 0.0294 | 127 | >10
9 | Cc1nn(-c2cccnc2F)c2c1C(=O)N(c1cc(C)c(=O)n(C)c1)C2c1ccc(Cl)cc1 (stereo not drawn) [Example 19, 6-(4-chlorophenyl)-5-(1,5-dimethyl-6-oxo-1,6-dihydropyridin-3-yl)-1-(2-fluoropyridin-3-yl)-3-methyl-5,6-dihydropyrrolo[3,4-c]pyrazol-4(1H)-one] | 80 | 73 | 50.5 | 0.0798 | 302 | >10
10 | COc1ncccc1-c1nn(C)c2c1C(=O)N(c1cc(C)c(=O)n(C)c1)[C@@H]2c1ccc(Cl)cc1 [Example 16, (R)-6-(4-chlorophenyl)-5-(1,5-dimethyl-6-oxo-1,6-dihydropyridin-3-yl)-3-(2-methoxypyridin-3-yl)-1-methyl-5,6-dihydropyrrolo[3,4-c]pyrazol-4(1H)-one] | 48.5 | 52 | 23.6 | 0.0437 | 197 | >10
11 | Cc1cc(N2C(=O)c3c(C4CC4)nn(-c4ccnn4C)c3C2c2ccc(Cl)cc2)cn(C)c1=O (stereo not drawn) [Example 5, 6-(4-chlorophenyl)-3-cyclopropyl-5-(1,5-dimethyl-6-oxo-1,6-dihydropyridin-3-yl)-1-(1-methyl-1H-pyrazol-5-yl)-5,6-dihydropyrrolo[3,4-c]pyrazol-4(1H)-one] | 74 | 82 | 53.8 | 0.1 | 658 | >10
